The source of these data is patent publication US9150508B2, “Sulfonamide compounds and their use in the modulation retinoid-related orphan receptor” (Glaxo Group Limited, priority 2011, dated 2015).

Assay [1] has as its system IL-17A secreted from antiCD3/CD28 stimulated Peripheral Blood Mononuclear cells (PBMC). Briefly: Peripheral Blood Mononucleocyte Cell Assay (PBMC Assay-IL-17). The settings on record: inhibition of IL-17A release, CD3/CD28 bead stimulated human PBMC, 48 hours; read-out: mean pIC50 (converted). Type of assay: cell-based. From the text: Peripheral Blood Mononucleocyte Cell Assay (PBMC Assay-IL-17)
RORs (Retinoic Acid Related Orphan Receptors) are members of the class 1 nuclear receptor family. RORs regulate gene transcription by binding to specific DNA response element (RORE) as a monomer and have critical roles of in development, immunity, circadian rhythm, and cellular metabolism (recently reviewed by A Jetten, Nuclear Receptor Signaling, 2009, 7, 1-32) One member of this nuclear receptor family, RORγt, has been identified as a regulator of differentiation and development of IL-17-expressing human and mouse CD4+ T cells, so called Th17 cells which play a role in both host defence and inflammatory disorders. RORγt is also required for transcription of the genes encoding IL-17A and IL-17F in iNKT, NKT (Immunol 2009, 2(5), 383-392, J. Immunol, 2008, 180, 51(67), 5171-5171), γδTcells (J. Resp and Crit. Care Med 2010, 182(4), 464-476), CD8^+ Tcell (J Leukocyte Biol, 2007, 82(2), 354-360) and finally CD4-CD8-TCRαβ^+ T cells (J. Immunol. 2008, 181 8761-8766). Additional immune cells such as eosinophils, neutrophils and macrophages can also be source of IL17A in some allergic inflammation related to asthma (J Allergy Clin Immunol 2001, 108, 430-438; J. Immunol, 2008, 181, 6117-6124; Immunity, 2004, 21, 467-476), however, the link with RORγt has not yet been confirmed in the literature.
This assay is designed to measure levels of IL-17A secreted from antiCD3/CD28 stimulated frozen Peripheral Blood Mononuclear cells (PBMC) isolated from human blood with the aim of identifying inhibitors of IL-17A release.
• 1. Ensure no external endotoxin is present in media and reagents used in the assay. • 2. The compounds for screening are dispensed into a master plate at 10 mM top concentration which are serially diluted 1:3 across 11 points in DMSO, then 500 nl is transferred into a 384-well flat-bottomed Greiner plate to which 50 ul of cell suspension is added: for the single shot screening the highest concentration of compound is 10^−5M; for 11 point full curve dose response studies the highest concentration is […]. • Controls: • As a low control, DMSO (as supplied, for example, by VWR) (final concentration 1%) in column 6 (16 points). • As a high control, 5-(4-fluorophenyl)-2-ureidothiophene-3-carboxamide (obtainable from, for example, Sigma) at a final concentration of 10^−4 M in DMSO should be used in column 18 (16 points). • If the compounds dispensed earlier than the day of the assay, they should be kept at −20° C.
Protocol Step 2: Day 1: Thawing and Handing of PBMC • 1. Thaw PBMC in the vial using water bath (37° C.). […] Transfer the contents of the vial into 50 mL Falcon tube. • 3. Add 10 mL of Assay Media drop by drop to decrease the concentration of DMSO (as supplied, for example, by VWR) in the freezing media gradually. • 4. Spin down the cells in a centrifuge (1000 rpm-5 mins). • 5. Decant the supernatant. • 6. Re-suspend the cells in 10 mL of Assay Media. • 7. Transfer of 0.1 mL of suspension into Cedex counting tube. • 8. Add 0.9 mL of media to achieve volume of the suspension for counting up to 1 mL. Count the cells on Cedex using 1:10 dilution factor settings. • 9. Make the cell suspension at the concentration 8×10^5 cells/mL. to give a final number of 40,000 cells/well. Protocol Step 3: Day 1: Stimulation of PBMC with CD3/CD28 beads • 1. Add well mixed CD3/CD28 Dynabeads (as supplied, for example, by Dynal) to achieve ratio bead:cell=2:1 (i.e a dilution of 1 in 20). Mix thoroughly. • 2. Dispense the suspension into the 384 Assay Plates using Multidrop (50 ul per well). • If the volume of cell suspension is large, mix the suspension after dispensing into every other plate. • 3. Cover the plates with the lids and place them to the humidified incubator (37° C., 5% CO2) for 48 hours. Protocol Step 4: Day 2: MSD plates preparation • 1. […]

For assay [2], the target named is T1, Human RORγ Ligand Binding Domain (RORγ-LBD) (Homo sapiens, UniProt P51449).
T1 construct: His6 plus thrombin site) (N); made in house; host or cells: E. coli BL21(DE3), modified pET21a
T1 sequence (P51449 263-518): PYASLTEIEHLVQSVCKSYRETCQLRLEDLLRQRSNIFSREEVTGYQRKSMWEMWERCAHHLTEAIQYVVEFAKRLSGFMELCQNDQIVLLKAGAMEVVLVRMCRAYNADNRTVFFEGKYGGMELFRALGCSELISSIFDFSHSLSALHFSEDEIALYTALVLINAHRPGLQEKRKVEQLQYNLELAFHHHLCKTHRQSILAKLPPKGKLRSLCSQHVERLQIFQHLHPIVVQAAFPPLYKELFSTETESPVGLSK
Briefly: Dual Fluorescence Energy Transfer (FRET) assay: RORγ-LBD / SRC1(2) co-activator peptide interaction. Type of assay: biochemical. The settings on record: RORγ-LBD/SRC1(2) peptide interaction, read-out: mean pIC50 (converted). From the text:
Dual Fluorescence Energy Transfer (FRET) Assay
This assay is based on the knowledge that nuclear receptors interact with cofactors (transcription factors) in a ligand dependent manner. RORγ is a typical nuclear receptor in that it has an AF2 domain in the ligand binding domain (LBD) which interacts with co-activators. The sites of interaction have been mapped to the LXXLL (SEQ ID NO:1) motifs in the co-activator SRC1(2) sequences. Short peptide sequences containing the LXXLL (SEQ ID NO:1) motif mimic the behavior of full-length co-activator.
This assay measures ligand-mediated interaction of the co-activator peptide with the purified bacterial-expressed RORγ ligand binding domain (RORγ-LBD) to indirectly assess ligand binding. RORγ has a basal level of interaction with the co-activator SRC1(2) in the absence of ligand, Thus, it is possible to find ligands that inhibit or enhance the RORγ/SRC1(2) interaction.
Human RORγ Ligand Binding Domain (RORγ-LBD) was expressed in E. coli strain BL21(DE3) as an amino-terminal polyhistidine tagged fusion protein. DNA encoding this recombinant protein was sub-cloned into a modified pET21a expression vector (Novagen). A modified polyhistidine tag (MKKHHHHHHLVPRGS) (SEQ ID NO:2)was fused in frame to residues 263-518 of the human RORγ sequence.
Approximately 50 g E. coli cell pellet was resuspended in 300 mL of lysis buffer (30 mM imidazole pH 7.0 and 150 mM NaCl). Cells were lysed by sonication and cell debris was removed by centrifugation for 30 minutes at 20,000 g at 4° C. The cleared supernatant was filtered through a 0.45 uM cellulose acetate membrane filter. The clarified lysate was loaded onto a column (XK-26) packed with ProBond Nickel Chelating resin (InVitrogen), pre-equilibrated with 30 mM imidazole pH 7.0 and 150 mM NaCl. After washing to baseline absorbance with the equilibration buffer, the column was developed with a gradient from 30 to 500 mM imidazole pH 7.0. Column fractions containing the RORγ-LBD protein were pooled and concentrated to a volume of 5 mLs. The concentrated protein was loaded onto a Superdex 200 column pre-equilibrated with 20 mM Tris-Cl pH 7.2 and 200 mM NaCl. The fractions containing the desired RORγ-LBD protein were pooled together.
Purified RORγ-LBD was buffer exchanged by exhaustive dialysis [3 changes of at least 20 volumes (>8000×)] against PBS [100 mM NaPhosphate, pH 8 and 150 mM NaCl]. The concentration of RORγ-LBD was approximately 30 uM in PBS. Five-fold molar excess of NHS-LC-Biotin (Pierce) was added in a minimal volume of PBS. This solution was incubated with occasional gentle mixing for 60 minutes at ambient room temperature. The modified RORγ-LBD was dialyzed against 2 buffer changes—TBS pH 8.0 containing 5 mM DTT, 2 mM EDTA and 2% sucrose—each at least 20 times of the volume. The modified protein was distributed into aliquots, frozen on dry ice and stored at −80° C. The biotinylated RORγ-LBD was subjected to mass spectrometric analysis to reveal the extent of modification by the biotinylation reagent. In general, approximately 95% of the protein had at least a single site of biotinylation and the overall extent of biotinylation followed a normal distribution of multiple sites ranged from one to five.
A biotinylated peptide corresponding to amino acid 676 to 700 ([…]) (SEQ ID NO:3)of the co-activator steroid receptor coactivator SRC1(2) was generated using similar method.
Biotinylated SRC1(2) solution was prepared by adding an appropriate amount of biotinylated SRC1(2) from the 100 uM stock solution to a buffer containing 10 mM of freshly added DTT from solid to give a final concentration of 40 nM. An appropriate amount of Europium labeled Streptavidin was then added to the biotinylated SRC1(2) solution in a tube to give a final concentration of 10 nM. The tube was inverted gently and incubated for 15 minutes at room temperature. […]

Take `CCCCc1ccc(N(CC(C)C)S(=O)(=O)c2ccc(OCc3c(C)noc3C)cc2)c(C)c1` [Product P23]: the IC50 in assay [1] was at most 1000 nM.

For the compound `Cc1ccc(N(CC(C)C)S(=O)(=O)c2ccc(OCc3c(C)noc3C)cc2)c(C)c1` [Product P24], the IC50 was at most 1000 nM in assay [1] and at most 15.8 nM in assay [2].

For the compound `Cc1noc(C)c1COc1ccc(S(=O)(=O)N(CC(C)C)c2ccc(C(C)C)cc2)cc1` [Product P28], the IC50 was at most 1000 nM in assay [1] and at most 15.8 nM in assay [2].

On to `Cc1noc(C)c1COc1ccc(S(=O)(=O)N(CC(C)C)c2ccc(Cl)cc2)cc1` [Product P30], for which the IC50 in assay [1] was at most 1000 nM; in assay [2] it was at most 15.8 nM.

`CCCc1ccc(N(CC(C)C)S(=O)(=O)c2ccc(OCc3c(C)noc3C)cc2)cc1` [Product P31]: the IC50 is at most 1000 nM in assay [1] and at most 15.8 nM in assay [2].

Take `Cc1ccc(C(F)(F)F)cc1N(CC(C)C)S(=O)(=O)c1ccc(OCc2c(C)noc2C)cc1` [Product P33]: the figures for the IC50 in assay [1] and in assay [2] were at most 1000 nM and at most 15.8 nM, respectively.

As to `Cc1ccc(C)c(N(CC(C)C)S(=O)(=O)c2ccc(OCc3c(C)noc3C)cc2)c1` [Product P37], the IC50 in assay [1] was at most 1000 nM.

Take `Cc1ccc(N(CC(C)C)S(=O)(=O)c2ccc(OCc3ccncc3)cc2)c(C)c1` [Product P98]: in assay [2], the IC50 is at most 15.8 nM.

As for `Cc1ccc(F)cc1N(CC(C)C)S(=O)(=O)c1ccc(OCc2ccncc2)cc1` [Product P104], the IC50 in assay [2] is at most 15.8 nM.

Turning to `Cc1noc(C)c1COc1ccc(S(=O)(=O)N(CC(C)C)c2ccc(Cl)c(Cl)c2)cc1` [Product P114], the IC50 in assay [2] is at most 15.8 nM.

Consider `Cc1cc(C)cc(N(CC(C)C)S(=O)(=O)c2ccc(OCc3c(C)noc3C)cc2)c1` [Product P118], for which the IC50 in assay [1] was at most 1000 nM.

Turning to `Cc1ccc(N(CC(C)C)S(=O)(=O)c2ccc(OCc3ccncc3)cc2)c(C)c1` [Product P123], the IC50 in assay [1] was at most 1000 nM.

For `Cc1ccc(N(CC(C)C)S(=O)(=O)c2ccc(COCc3ccncc3)cc2)c(C)c1` [Product P128], the IC50 in assay [1] is at most 1000 nM.

Regarding `Cc1ccc(N(CC(C)C)S(=O)(=O)c2ccc(OCc3ncn(C)n3)cc2)c(C)c1` [Product P132], the IC50 in assay [1] was at most 1000 nM.

As for `Cc1ccccc1N(CC(C)C)S(=O)(=O)c1ccc(OCc2c(C)noc2C)cc1` [Product P137], in assay [1], the IC50 was at most 1000 nM.

Turning to `Cc1ccc(N(CC(C)C)S(=O)(=O)c2ccc(CCc3ccncc3)cc2)c(C)c1` [Product P140], the values for the IC50 in assay [1] and in assay [2] were at most 1000 nM and at most 15.8 nM, respectively.

For `Cc1ccc(N(CC(C)C)S(=O)(=O)c2ccc(OCCc3ccncc3)cc2)c(C)c1` [Product P141], the IC50 in assay [2] is at most 15.8 nM.

Turning to `Cc1ccc(N(CC(C)C)S(=O)(=O)c2ccc(OCCc3c(C)noc3C)cc2)c(C)c1` [Product P142], in assay [2], the IC50 was at most 15.8 nM.

As to `Cc1ccc(N(CC(C)C)S(=O)(=O)c2ccc(OCc3ccncn3)cc2)c(C)c1` [Product P143], in assay [1], the IC50 was at most 1000 nM.

With `Cc1cc(Br)ccc1N(CC(C)C)S(=O)(=O)c1ccc(OCc2c(C)noc2C)cc1` [Product P144], the IC50 in assay [1] is at most 1000 nM.

As to `Cc1ccc(N(CC(C)C)S(=O)(=O)c2ccc(OCc3ncnn3C)cc2)c(C)c1` [Product P147], the IC50 in assay [1] was at most 1000 nM.

As for `Cc1ccc(N(CC(C)C)S(=O)(=O)c2ccc(OCC(O)c3ccncc3)cc2)c(C)c1` (stereo not drawn) [Product P150, N-(2,4-dimethylphenyl)-4-(2-hydroxy-2-(pyridin-4-yl)ethoxy)-N-isobutylbenzenesulfonamide], the IC50 in assay [2] is at most 15.8 nM.

For the compound `Cc1cc(C(C)(C)O)ccc1N(CC(C)C)S(=O)(=O)c1ccc(OCc2c(C)noc2C)cc1` [Product P155, 4-((3,5-dimethylisoxazol-4-yl)methoxy)-N-(4-(2-hydroxypropan-2-yl)-2-methylphenyl)-N-isobutylbenzenesulfonamide], the IC50 in assay [1] is at most 1000 nM.

On to `Cc1ccc(N(CC(C)C)S(=O)(=O)c2ccc(C(=O)O)cc2)c(C)c1` [Product P179, 4-(N-(2,4-dimethylphenyl)-N-isobutylsulfamoyl)benzoic acid], for which the IC50 in assay [1] is above 100000 nM.
